Results reported in article PMC12259270, “Sensory neuron–expressed FGF13 controls nociceptive signaling in diabetic neuropathy models” (The Journal of Clinical Investigation, 2025).
Where “and” joins values, the source holds several entries; their conditions need not be identical. Identical values can stand only once. Residues, ends and D or L forms follow the SMILES beside them. *: point of attachment. NHPh = c1ccc(N*)cc1

System: C57BL/6 mice
Test: Capsaicin-induced mechanical hypersensitivity (von Frey)
Format: in vivo, mouse
Parameters: LVF Mean / HVF Mean / MECHANICAL LVF / MECHANICAL HVF: unit not given here
From the text: FGF13 is a neuronal gene ubiquitously transcribed in DRG neuronal subtypes ([43]–[46]). To investigate neuronal subtype enrichment of the FGF13 transcript, we examined a gene panel including FGF13, SCN9A, and several marker genes in mouse single-cell transcriptomic data (Supplemental Figure 10) ([43]–[46]). […] Critically, putative silent nociceptors marked by somatostatin (SST), and the nicotinic cholinergic receptor α-3 subunit (CHRNA3) contribute to development of inflammatory mechanical hyperalgesia ([47]). […] We next determined if PW164 modulation of the FGF13/Nav1.7 complex could suppress nociceptive behaviors in WT mice. We tested whether intraplantar (i.pl.) injection (5 μL) of PW164 altered hind paw withdrawal in response to low or high intensity von Frey filament (LVF or HVF, respectively) mechanical stimulation (Figure 3A). […] Next, we evaluated PW164’s effect on mechanical and thermal hindpaw sensitivity in capsaicin-induced nociceptive hypersensitivity models. […] Next, we performed in vivo target validation in WT mice that received an intrathecal (i.t.) injection in L5 of AAV2-shFGF13 (6 μL, viral titers 1 × 10^12 vector genomes (vg)/mL); a control group received an equal number of AAV2-shCTRL particles (Figure 3C).
Experiments were performed on 6- to 12-week-old male C57BL/6 mice (The Jackson Laboratory, Bar Harbor, ME) housed in the AAALAC-accredited facility at the University of Texas Medical Branch. Mice were group-housed with up to 5 mice per cage on a 12-to-12-hour light–dark cycle and had access to water and food ad libitum. All protocols were approved by the Institutional Animal Care and Use Committee (IACUC) at the University of Texas Medical Branch and in accordance with the National Institutes of Health (NIH) guidelines.
PW164 and ZL192 were dissolved in DMSO and saline in a ratio of 1:10. 0.1% capsaicin (10% ethanol, 10% Tween-20 in saline; Sigma-Aldrich). All the compounds were injected at the center of the hind paw. The control group received a DMSO-saline mixture. […]
Bupivacaine was prepared from a 1:2 dilution with sterile 0.9% saline and locally injected in the center of the paw at 7 mg/ml.
AAV2 viral particles packaged by the University of North Carolina Gene Therapy Core Facility (viral titer ranging […]
Before intrathecal injections in the lumbar region, mice were maintained in an anesthetizing box with 2% isoflurane to induce unconsciousness. Six microliters of viral vector were gently injected into the CSF through a 30-gauge needle with a Hamilton syringe in the lumbar area between vertebrae L4 and L5 by gently gripping the iliac crest of the mouse and inserting the needle with an angle of 45°. The correct procedure was confirmed by the mouse’s tail reflexiv e flick.
Assessment of mechanical sensitivity
Mechanical sensitivity was assessed using von Frey filaments (VFF 0.1g and 1.0 g force) in mice that were either naïve or received intraplantar (i.p.) injection of capsaicin. VFFs were applied at the injection site (capsaicin or […]

[1] = Zl 0192 .06mg/ml 5ul site 2 i.d(after cap 0.5h ), Male GFP mouse site 1, hour 0
[2] = Zl 0192 .06mg/ml 5ul site 2 i.d(after cap 0.5h ), Male GFP mouse site 1, hour 0.5
[3] = Zl 0192 .06mg/ml 5ul site 2 i.d(after cap 0.5h ), Male GFP mouse site 1, hour 1
[4] = Zl 0192 .06mg/ml 5ul site 2 i.d(after cap 0.5h ), Male GFP mouse site 1, hour 1.5
[5] = Zl 0192 .06mg/ml 5ul site 2 i.d(after cap 0.5h ), Male GFP mouse site 1, hour 2
[6] = Zl 0192 .06mg/ml 5ul site 2 i.d(after cap 0.5h ), Male GFP mouse site 1, hour 3
[7] = Zl 0192 .06mg/ml 5ul site 2 i.d(after cap 0.5h ), Male GFP mouse site 2, hour 0
[8] = Zl 0192 .06mg/ml 5ul site 2 i.d(after cap 0.5h ), Male GFP mouse site 2, hour 0.5
[9] = Zl 0192 .06mg/ml 5ul site 2 i.d(after cap 0.5h ), Male GFP mouse site 2, hour 1
[10] = Zl 0192 .06mg/ml 5ul site 2 i.d(after cap 0.5h ), Male GFP mouse site 2, hour 1.5
[11] = Zl 0192 .06mg/ml 5ul site 2 i.d(after cap 0.5h ), Male GFP mouse site 2, hour 2
[12] = Zl 0192 .06mg/ml 5ul site 2 i.d(after cap 0.5h ), Male GFP mouse site 2, hour 3
[13] = Zl 0192 .06mg/ml 5ul site 2 i.d., Male GFP mouse site 1, hour 0
[14] = Zl 0192 .06mg/ml 5ul site 2 i.d., Male GFP mouse site 1, hour 0.5
[15] = Zl 0192 .06mg/ml 5ul site 2 i.d., Male GFP mouse site 1, hour 1
[16] = Zl 0192 .06mg/ml 5ul site 2 i.d., Male GFP mouse site 1, hour 1.5
[17] = Zl 0192 .06mg/ml 5ul site 2 i.d., Male GFP mouse site 1, hour 2
[18] = Zl 0192 .06mg/ml 5ul site 2 i.d., Male GFP mouse site 1, hour 3
[19] = Zl 0192 .06mg/ml 5ul site 2 i.d., Male GFP mouse site 2, hour 0
[20] = Zl 0192 .06mg/ml 5ul site 2 i.d., Male GFP mouse site 2, hour 0.5
[21] = Zl 0192 .06mg/ml 5ul site 2 i.d., Male GFP mouse site 2, hour 1
[22] = Zl 0192 .06mg/ml 5ul site 2 i.d., Male GFP mouse site 2, hour 1.5
[23] = Zl 0192 .06mg/ml 5ul site 2 i.d., Male GFP mouse site 2, hour 2
[24] = Zl 0192 .06mg/ml 5ul site 2 i.d., Male GFP mouse site 2, hour 3
[25] = Zl 0192 .18mg/ml 5ul site 2 i.d(after cap 0.5h ), Male GFP mouse site 1, hour 0
[26] = Zl 0192 .18mg/ml 5ul site 2 i.d(after cap 0.5h ), Male GFP mouse site 1, hour 0.5
[27] = Zl 0192 .18mg/ml 5ul site 2 i.d(after cap 0.5h ), Male GFP mouse site 1, hour 1
[28] = Zl 0192 .18mg/ml 5ul site 2 i.d(after cap 0.5h ), Male GFP mouse site 1, hour 1.5
[29] = Zl 0192 .18mg/ml 5ul site 2 i.d(after cap 0.5h ), Male GFP mouse site 1, hour 2
[30] = Zl 0192 .18mg/ml 5ul site 2 i.d(after cap 0.5h ), Male GFP mouse site 1, hour 3
[31] = Zl 0192 .18mg/ml 5ul site 2 i.d(after cap 0.5h ), Male GFP mouse site 2, hour 0
[32] = Zl 0192 .18mg/ml 5ul site 2 i.d(after cap 0.5h ), Male GFP mouse site 2, hour 0.5
[33] = Zl 0192 .18mg/ml 5ul site 2 i.d(after cap 0.5h ), Male GFP mouse site 2, hour 1
[34] = Zl 0192 .18mg/ml 5ul site 2 i.d(after cap 0.5h ), Male GFP mouse site 2, hour 1.5
[35] = Zl 0192 .18mg/ml 5ul site 2 i.d(after cap 0.5h ), Male GFP mouse site 2, hour 2
[36] = Zl 0192 .18mg/ml 5ul site 2 i.d(after cap 0.5h ), Male GFP mouse site 2, hour 3
[37] = Zl 0192 .18mg/ml 5ul site 2 i.d., Male GFP mouse site 1, hour 0
[38] = Zl 0192 .18mg/ml 5ul site 2 i.d., Male GFP mouse site 1, hour 0.5
[39] = Zl 0192 .18mg/ml 5ul site 2 i.d., Male GFP mouse site 1, hour 1
[40] = Zl 0192 .18mg/ml 5ul site 2 i.d., Male GFP mouse site 1, hour 1.5
[41] = Zl 0192 .18mg/ml 5ul site 2 i.d., Male GFP mouse site 1, hour 2
[42] = Zl 0192 .18mg/ml 5ul site 2 i.d., Male GFP mouse site 1, hour 3
[43] = Zl 0192 .18mg/ml 5ul site 2 i.d., Male GFP mouse site 2, hour 0
[44] = Zl 0192 .18mg/ml 5ul site 2 i.d., Male GFP mouse site 2, hour 0.5
[45] = Zl 0192 .18mg/ml 5ul site 2 i.d., Male GFP mouse site 2, hour 1
[46] = Zl 0192 .18mg/ml 5ul site 2 i.d., Male GFP mouse site 2, hour 1.5
[47] = Zl 0192 .18mg/ml 5ul site 2 i.d., Male GFP mouse site 2, hour 2
[48] = Zl 0192 .18mg/ml 5ul site 2 i.d., Male GFP mouse site 2, hour 3

CC(=O)N[C@@H](Cc1ccccc1)C(=O)N[C@@H](CC(C)C)C(=O)N1CCC[C@H]1C(=O)N[C@@H](CCCCN)C(=O)Nc1ccccc1 [Zl 0192] (Ac-FLPK-NHPh)
60 and 70: MECHANICAL LVF [10] | MECHANICAL LVF [32] | MECHANICAL LVF [34]
70 and 80: MECHANICAL LVF [15]
60 and 50: MECHANICAL LVF [22] | MECHANICAL HVF [25] | MECHANICAL LVF [44]
80: MECHANICAL LVF [4] | MECHANICAL HVF [18] | MECHANICAL LVF [39]
40 and 60: MECHANICAL LVF [20]
80 and 70: MECHANICAL LVF [5] | MECHANICAL LVF [6] | MECHANICAL LVF [16] | MECHANICAL HVF [23]
50: MECHANICAL HVF [1] | MECHANICAL HVF [7] | MECHANICAL HVF [13] | MECHANICAL LVF [17] | MECHANICAL HVF [19] | MECHANICAL HVF [31] | MECHANICAL HVF [37] | MECHANICAL HVF [43] | MECHANICAL LVF [48]
70 and 60: MECHANICAL LVF [11] | MECHANICAL LVF [26] | MECHANICAL LVF [27] | MECHANICAL LVF [35] | MECHANICAL LVF [41] | MECHANICAL LVF [45]
40 and 50: MECHANICAL LVF [38]
80 and 50: MECHANICAL HVF [24]
40 and 70: MECHANICAL LVF [14]
80 and 90: MECHANICAL HVF [17] | MECHANICAL LVF [28] | MECHANICAL LVF [29]
50 and 60: MECHANICAL LVF [8]
100: MECHANICAL HVF [2] | MECHANICAL HVF [3] | MECHANICAL HVF [4] | MECHANICAL HVF [5] | MECHANICAL HVF [6] | MECHANICAL HVF [8] | MECHANICAL HVF [9] | MECHANICAL HVF [10] | MECHANICAL HVF [11] | MECHANICAL HVF [12] | MECHANICAL HVF [14] | MECHANICAL HVF [15] | MECHANICAL HVF [16] | MECHANICAL HVF [20] | MECHANICAL HVF [21] | MECHANICAL HVF [26] | MECHANICAL HVF [27] | MECHANICAL HVF [28] | MECHANICAL HVF [29] | MECHANICAL HVF [30] | MECHANICAL HVF [32] | MECHANICAL HVF [33] | MECHANICAL HVF [34] | MECHANICAL HVF [35] | MECHANICAL HVF [36] | MECHANICAL HVF [38] | MECHANICAL HVF [39] | MECHANICAL HVF [40] | MECHANICAL HVF [41] | MECHANICAL HVF [42] | MECHANICAL HVF [44] | MECHANICAL HVF [45] | MECHANICAL HVF [46] | MECHANICAL HVF [47] | MECHANICAL HVF [48]
0: MECHANICAL LVF [1] | MECHANICAL LVF [7] | MECHANICAL LVF [13] | MECHANICAL LVF [19] | MECHANICAL LVF [25] | MECHANICAL LVF [31] | MECHANICAL LVF [37] | MECHANICAL LVF [43]
70: MECHANICAL LVF [2] | MECHANICAL LVF [3] | MECHANICAL LVF [21] | MECHANICAL LVF [36] | MECHANICAL LVF [40] | MECHANICAL LVF [47]
20 and 30: MECHANICAL LVF [18]
20 and 10: MECHANICAL LVF [24]
90 and 80: MECHANICAL LVF [30]
60: MECHANICAL LVF [9] | MECHANICAL LVF [33] | MECHANICAL LVF [42] | MECHANICAL LVF [46]
90 and 70: MECHANICAL HVF [22]
30 and 40: MECHANICAL LVF [12] | MECHANICAL LVF [23]
